Measurements: patent US20170313669A1, “LACTONE COMPOUNDS AND METHODS OF MAKING AND USING SAME” (THE SCRIPPS RESEARCH INSTITUTE, priority 2015, published 2017)

System: mouse peritoneal macrophages
Assay: Lyso-PS content of thioglycollate-elicited peritoneal macrophages
Assay type: cell-based
Details: pre-treatment 1 μM, 4 h; LPS 5 μg/mL, 7 h
Description: ABHD16A^+/+, ABHD16A^+/+, and ABHD16A^−/− littermates of 10 weeks age were anaesthetized by isoflurane and killed by decapitation. The tissues (brains were sliced laterally into two hemispheres; entire spinal cord) were harvested, weighed, and immediately submerged in liquid N2. Tissues (one half brain or entire spinal cord) were then Dounce-homogenized in 8 mL of 2:1:1 (vol/vol/vol) CHCl3: MeOH: PBS containing the internal standard mix (1 nmol 17:1 FFA, and 100 pmol each of 17:1 lyso-PS, 17:0-20:4 PS, 17:1 lyso-PC, 17:0-20:4 PC, 17:0-20:4 PE and 50 pmol of 2-AG-d5). Homogenates were transferred to a glass vial and centrifuged at 2800×g for 10 minutes to separate the two phases. The organic phase (bottom) was removed, 200 μL of formic acid was added to acidify the aqueous homogenate (to enhance extraction of phospholipids), and CHCl3 was added to make up 8 mL volume. […]
All the metabolites analyzed in this study were quantified using the multiple reaction monitoring (MRM) methods the targeted LC/MS analysis was done using an Agilent Technologies 6460 Triple Quad LC/M with an Agilent Technologies 1290 Infinity series quaternary pump. All data was collected using the LC/MS Data Acquisition mode of the Mass Hunter Workstation Software version B.05.00 build 5.0.5027.0 SP, and analyzed using the Quantitative Analysis mode of the same software. […]

## CCCCCCCCCCCCCC1OC(=O)/C1=C\CCCCC(N)=O (stereo not shown) [KC01, (Z)-6-(2-oxo-4-tridecyloxetan-3-ylidene)hexanamide]
  basal and LPS-induced cellular and secreted lyso-PSs: reduced
